Measurements reported in ChEMBL document CHEMBL1129144, “Stereoselective synthesis and biological activity of cis azetidinones as cholesterol absorption inhibitors” (1996).

Experiments:
Type in all cases: functional
[1] = tested on: Cricetinae gen. sp.; assay: Compound was tested for cholesterol reduction in liver in the cholesterol-fed hamster model after oral administration.
[2] = tested on: Cricetinae gen. sp.; assay: Compound was tested for % inhibition of cholesterol in the cholesterol-fed hamster model after oral administration at a dose of 10 mg/kg/day.
[3] = tested on: Cricetinae gen. sp.; assay: Compound was tested for % inhibition of cholesterol in the cholesterol-fed hamster model after oral administration at a dose of 3 mg/kg/day.
[4] = tested on: Cricetinae gen. sp.; assay: Compound was tested for % inhibition of cholesterol in the cholesterol-fed hamster model after oral administration at a dose of 100 mg/kg/day.
[5] = tested on: Cricetinae gen. sp.; assay: Compound was tested for % inhibition of cholesterol in the cholesterol-fed hamster model after oral administration at a dose of 25 mg/kg/day.
[6] = tested on: Cricetinae gen. sp.; assay: Compound was tested for cholesterol inhibition in the cholesterol-fed hamster model after oral administration.

| SMILES | ED50 [1] | Reduction [2] | other results |
| --- | --- | --- | --- |
| COc1ccc([C@@H]2[C@H]([C@H](O)CCc3ccccc3)C(=O)N2c2ccccc2)cc1 | 0.4 mg/kg/day | – | – |
| COc1ccc([C@@H]2[C@@H]([C@H](O)CCc3ccccc3)C(=O)N2c2ccccc2)cc1 | 1.2 mg/kg/day | – | – |
| COc1ccc([C@@H]2[C@@H]([C@@H](O)CCc3ccccc3)C(=O)N2c2ccccc2)cc1 | 8.6 mg/kg/day | – | – |
| COc1ccc([C@H]2[C@H]([C@H](O)CCc3ccccc3)C(=O)N2c2ccccc2)cc1 | – | 38% | – |
| COc1ccc([C@@H]2[C@@H](CCCc3ccccc3)C(=O)N2c2ccccc2)cc1 | 0.54 mg/kg/day | – | – |
| COc1ccc([C@H]2[C@@H]([C@H](O)CCc3ccccc3)C(=O)N2c2ccccc2)cc1 | – | 0% | – |
| COc1ccc([C@@H]2[C@H]([C@@H](O)CCc3ccccc3)C(=O)N2c2ccccc2)cc1 | – | – | Reduction [3]: 0% |
| COc1ccc([C@H]2[C@@H](CCCc3ccccc3)C(=O)N2c2ccccc2)cc1 | – | – | Reduction [4]: 0% |
| COc1ccc([C@H]2[C@H](CCCc3ccccc3)C(=O)N2c2ccccc2)cc1 | – | – | Reduction [5]: 0% |
| COc1ccc(C2N(c3ccc(OC)cc3)C(=O)[C@]23CC[C@H](c2ccccc2)CC3)cc1 (stereo partly drawn) | – | – | ED50 [6]: 3 mg/kg |
| COc1ccc([C@H]2[C@H]([C@@H](O)CCc3ccccc3)C(=O)N2c2ccccc2)cc1 | – | 0% | – |
| COc1ccc([C@H]2[C@@H]([C@@H](O)CCc3ccccc3)C(=O)N2c2ccccc2)cc1 | – | 22% | – |
| COc1ccc([C@@H]2[C@H](CCCc3ccccc3)C(=O)N2c2ccccc2)cc1 | 4 mg/kg/day | – | – |
